Assay results reported in the supplement of paper PMC10307832.

Key:
Assay in all cases: relative viability (nuclei count vs DMSO), 5 days (fraction); higher = more cells survive
[1] = compound: C1CNCCC1C2=CC(=NN2)C3=CC=NC=C3 + CC(=O)Nc1cccc(-n2c(=O)n(C3CC3)c(=O)c3c(Nc4ccc(I)cc4F)n(C)c(=O)c(C)c32)c1 [Trametinib] (partner 0.02 µM)
Procedure, shortened: (§1)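 Lung cancer cell lines, seeded in 1536-well plates, were treated the following day by pin tool with a single drug or with five library-drug doses (not always all listed) in √10 steps on top of a fixed anchor-drug dose. Cells were fixed and nuclei stained in one step after 5 days, and nuclei were counted. Relative viability is the nuclei count for treated wells divided by that for vehicle wells, reported as medians of duplicate plates.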

[2] = compound: C1CNCCC1C2=CC(=NN2)C3=CC=NC=C3 + Nc1nc2[nH]cc(CCc3ccc(C(=O)N[C@@H](CCC(=O)O)C(=O)O)cc3)c2c(=O)[nH]1 [Pemetrexed] (partner 0.2 µM)
Procedure, shortened: as §1

[3] = compound: C[C@@H](N)c1ccc(C(=O)Nc2ccnc3[nH]ccc23)cc1 + CCNC(=O)c1noc(-c2cc(C(C)C)c(O)cc2O)c1-c1ccc(CN2CCOCC2)cc1 [Luminespib] (partner 0.01 µM)
Procedure, shortened: as §1

[4] = compound: C[C@@H](N)c1ccc(C(=O)Nc2ccnc3[nH]ccc23)cc1 + NC(=O)Nc1cc(-c2cccc(F)c2)sc1C(=O)N[C@H]1CCCNC1 [AZD7762] (partner 0.2 µM)
Procedure, shortened: as §1

Cell Line	relative viability ([1]; first compound 0.08 µM)	relative viability ([1]; first compound 0.8 µM)	relative viability ([1]; first compound 2.53 µM)	relative viability ([1]; first compound 8 µM)	relative viability ([2]; first compound 0.08 µM)	relative viability ([2]; first compound 0.8 µM)	relative viability ([2]; first compound 2.53 µM)	relative viability ([2]; first compound 8 µM)	relative viability ([3]; first compound 0.04 µM)	relative viability ([3]; first compound 0.1265 µM)	relative viability ([3]; first compound 0.4 µM)	relative viability ([3]; first compound 1.265 µM)	relative viability ([3]; first compound 4 µM)	relative viability ([4]; first compound 0.04 µM)	relative viability ([4]; first compound 0.1265 µM)	relative viability ([4]; first compound 0.4 µM)	relative viability ([4]; first compound 1.265 µM)	relative viability ([4]; first compound 4 µM)
ChaGo-K-1	0.916	0.85	0.897	0.807	0.262	0.261	0.269	0.298	0.554	0.641	0.629	0.562	0.436	0.832	0.862	0.978	0.838	0.816
NCI-H1755	0.744	0.833	0.755	0.739	0.475	0.439	0.433	0.329	0.384	0.426	0.69	0.397	0.26	0.408	0.46	0.451	0.362	0.397
LC-2-ad	0.887	1.02	0.93	0.932	0.261	0.291	0.273	0.281	0.864	0.987	0.837	–	0.659	0.763	0.787	0.823	0.787	0.599
NCI-H1666	0.749	0.87	0.979	0.915	0.788	0.804	0.873	0.909	1.02	1.03	1.13	1.4	1.16	0.824	0.953	1.13	1.12	0.98
201T	0.712	0.731	0.753	0.675	0.349	0.384	0.332	0.352	1.02	1.02	1.08	1.14	1.14	0.644	0.678	0.668	1.01	0.783
NCI-H1395	0.905	0.992	0.966	1.16	0.782	0.803	1.03	0.861	0.662	0.716	0.64	0.669	0.685	0.396	0.391	0.395	–	0.39
LU99A	0.48	0.616	0.561	0.543	0.218	0.181	0.153	0.337	–	0.303	0.323	0.251	0.292	–	0.354	0.467	0.511	0.771
NCI-H1437	0.54	0.536	0.679	0.639	0.334	0.312	0.363	0.303	1.1	1.05	1.21	1.13	0.907	1.12	1.13	1.14	1.13	1.04
EKVX	0.402	–	0.366	0.445	0.423	–	0.427	0.404	0.943	0.987	1.08	0.879	0.942	0.708	0.714	0.896	0.745	0.707
LCLC-97TM1	0.191	0.204	0.172	0.193	0.186	0.161	0.17	0.173	0.828	0.826	1.06	0.908	0.857	0.302	0.234	0.425	0.314	0.639
NCI-H2170	0.763	0.925	0.915	0.907	0.269	0.283	0.288	0.266	0.735	0.708	0.623	0.649	0.502	0.972	0.935	1.05	0.827	0.832
NCI-H1793	0.459	–	0.414	0.406	0.805	–	0.929	0.974	0.165	0.184	0.178	–	0.183	0.409	0.62	0.442	–	0.73
NCI-H3122	0.207	0.222	0.209	0.238	0.193	0.212	0.197	0.202	0.0997	0.0955	0.113	0.162	0.124	1.13	0.982	1.06	1.06	0.955
PC-14	0.64	0.761	0.903	0.763	0.107	0.134	0.138	0.131	–	0.183	0.154	–	0.132	0.251	0.347	0.364	0.313	0.469
EPLC-272H	0.283	0.278	0.319	0.344	0.298	0.317	0.38	0.412	0.402	0.602	0.188	0.491	0.405	0.0944	0.216	0.18	–	0.439
A-427	0.748	0.857	0.779	0.874	0.967	0.996	0.982	0.94	0.79	0.898	0.976	–	0.804	0.708	0.751	0.779	0.806	0.665
